According to US8354372B2 (priority 2006, dated 2013):
Bridge positions count the residues as written; N and C are the ends. Peptide text beside a SMILES is read from it.

Experiments:
[1] = tested on: bovine adrenal chromaffin cells; type: cell-based
[2] = in vitro; details: human, plasma
[3] = target: endoproteinase Glu-C (Endo Glu-C) (Staphylococcus aureus, UniProt P0C1U8); details: pH 8
endoproteinase Glu-C (Endo Glu-C), sequence (P0C1U8 69-336 limits assumed): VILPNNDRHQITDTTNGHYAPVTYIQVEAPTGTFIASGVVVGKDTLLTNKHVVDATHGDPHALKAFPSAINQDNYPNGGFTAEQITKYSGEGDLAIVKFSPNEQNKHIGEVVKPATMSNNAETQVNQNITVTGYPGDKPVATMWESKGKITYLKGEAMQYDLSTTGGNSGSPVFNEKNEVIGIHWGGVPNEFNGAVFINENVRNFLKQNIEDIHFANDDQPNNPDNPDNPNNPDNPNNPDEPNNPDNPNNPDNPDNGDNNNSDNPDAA

SMILES	stability in human plasma relative to MII	inhibition of nicotine-evoked catecholamine release, activity relative to linear MII [1]	remaining at 24 h [2] [%]	intact peptide remaining on incubation with Endo-GluC [3]
CC(C)C[C@@H]1NC(=O)[C@H](CC(N)=O)NC(=O)[C@H](CO)NC(=O)[C@H](Cc2c[nH]cn2)NC(=O)[C@H](CCC(=O)O)NC(=O)[C@H](CC(C)C)NC(=O)[C@H](Cc2c[nH]cn2)NC(=O)[C@@H]2CSSC[C@@H]3NC(=O)CNC(=O)CNC(=O)[C@H](C)NC(=O)[C@H](C)NC(=O)CNC(=O)[C@H](C)NC(=O)CNC(=O)CNC(=O)[C@H](CSSC[C@H](NC3=O)C(=O)N[C@@H](CO)C(=O)N[C@@H](CC(N)=O)C(=O)N3CCC[C@H]3C(=O)N[C@@H](C(C)C)C(=O)N2)NC1=O [cMII-7] (cyclo(AAGGCCSNPVCHLEHSNLCGGAG); disulfide 5-11, 6-19)	dramatically greater than MII	comparable to linear MII	~90	remain entirely intact
CC(C)C[C@@H]1NC(=O)[C@H](CC(N)=O)NC(=O)[C@H](CO)NC(=O)[C@H](Cc2c[nH]cn2)NC(=O)[C@H](CCC(=O)O)NC(=O)[C@H](CC(C)C)NC(=O)[C@H](Cc2c[nH]cn2)NC(=O)[C@@H]2CSSC[C@@H]3NC(=O)CNC(=O)CNC(=O)CNC(=O)[C@H](C)NC(=O)[C@H](C)NC(=O)CNC(=O)CNC(=O)[C@H](CSSC[C@H](NC3=O)C(=O)N[C@@H](CO)C(=O)N[C@@H](CC(N)=O)C(=O)N3CCC[C@H]3C(=O)N[C@@H](C(C)C)C(=O)N2)NC1=O [cMII-6] (cyclo(AAGGGCCSNPVCHLEHSNLCGG); disulfide 6-12, 7-20)	dramatically greater than MII	comparable to linear MII	~90	remain entirely intact
